Results from patent US8222022B2, “Tri-functionalized cryptophane biosensors” (The Trustees of the University of Pennsylvania, priority 2008, dated 2012).
Each block holds one compound with its values, some of them ahead of it.

Experiments:
[1] = Xenon binding by fluorescence quenching; details: 293 K, phosphate buffer
Method: Steady-state fluorescence spectra were acquired using a Varian Cary Eclipse fluorimeter equipped with a Peltier multicell holder for temperature control. Concentration measurements necessary for fluorescence work were obtained using an Agilent 8453 UV-Vis spectrophotometer. Xenon binding determination by fluorescence quenching was performed. The quantum yield of tri-acid cryptophane was measured relative to tryptophan.
The xenon affinity of tricarboxylate cryptophane was studied by fluorescence quenching (FIG. 2) and isothermal titration calorimetry (ITC) (FIG. 3). […] As in a previous fluorescence quenching study with TTPC, temperature-equilibrated solutions of xenon-saturated water were added sequentially by syringe to a septum-sealed fluorescence cuvette and fluorescence intensity measurements were taken. […]
A saturated xenon solution at 310 K ([Xe]=3.3 mM) was titrated into the septum-sealed cuvette by gas-tight syringe. […] In all cases, fluorescence spectra were collected after thermal equilibration at 293 K (FIG. 2)
The fluorescence maxima were fitted to a single-site binding model using the following relationship.
At xenon saturation, [Xe]=5.05 mM at 293 K and 1 atm, the cryptophane fluorescence was half quenched (Fo/F=2). No cryptophane impurities or concentration dependent phenomena were observed that might also contribute to partial fluorescence quenching. […]

[2] = Xenon binding by isothermal titration calorimetry (ITC) in phosphate buffer
Method: ITC samples were prepared and experiments were performed using a MicroCal VP-ITC titration microcalorimeter (Northampton, Mass.) at 293 K. Standard protocols and data analysis were used. Control enthalpograms are given in the appended figures.
In order to confirm the association constants obtained by fluorescence quenching, ITC experiments were performed.
(§1) Xenon binding was also determined by isothermal titration calorimetry (ITC), which directly measured the heat released during Xe association. ITC measurements were undertaken in 20 mM, pH 7.5 phosphate buffer at 293 K and 310 K as well as in human plasma at 310 K (FIG. 3).
The association constants obtained from fits of ITC data at 293 K (KA=1.73×10^4 M^−1, Table 5) and fluorescence quenching were in excellent agreement. […] This was likely a consequence of the 20 water molecules that make up the first solvation sphere of the Xe atom in aqueous solution.

[3] = Aqueous solubility (visual observation of precipitation, dissolution in aqueous base); details: visual observation of precipitation during titration
Text: Steric congestion near the carboxylic acid group decreases acidity by preventing efficient solvation of the carboxylate anion. […] Each acid group attached to TAAC can be approximated as being an acetic acid attached to a ˜1 nm diameter nonpolar sphere. Water molecules surrounding the nonpolar cryptophane surface must be ordered, a consequence of the hydrophobic effect. Carboxylate solvation must directly compete with this ordered solvation sphere necessary for the cryptophane core.

[4] = Xenon binding by ITC in human plasma; details: Plasma 310 K
Method: as §1
From Table 5 and the known thermodynamics of xenon partitioning into water, an upper limit of ΔH=−7.5 kcal/mol was calculated for the enthalpy of xenon binding to I. Thus, the measured ΔH of −6.04 kcal/mol, although larger than in buffer, appeared reasonable.

human isozyme II (CAII) = human isozyme II (CAII) (Homo sapiens, UniProt P00918); test: Binding to carbonic anhydrase II in solution (ITC); details: read-out: KD against CAII
Text: The ^129Xe isotope has a spin-½ nucleus, a >200 ppm chemical shift window in water, and a natural isotopic abundance of 26% (commercially available up to 86%), which makes it an appealing biomolecular probe for MRI. Moreover, ^129Xe can be laser polarized to enhance MRI signals ˜10,000-fold.

[5] = comparison value; cited from earlier work
[6] = 293 K, 20 mM pH 7.5 phosphate buffer

association constant (Xe) by fluorescence quenching [1]: 33,000±2000 M^−1
additional stabilization of the Xe@TAAC complex relative to Xe@TTPC ([2]; 293 K): -0.37 kcal/mol
xenon association constant KA by ITC [2, 6]: 33,000±3000 M^−1
ΔG of xenon binding [2, 6]: -6.09 kcal/mol
ΔH of xenon binding [2, 6]: -4.3 ± 0.7 kcal/mol
ΔS of xenon binding [2, 6]: 5.9 cal*mol^−1*K^−1
xenon association constant ([2]; 293 K, by ITC and fluorescence quenching assay): 33,000 M^−1
xenon association constant ([2]; 310 K, extrapolated from the 293 K value): ~50,000 M^−1
KA ([2]; ITC at 293 K (Table 2)): 3.33 ± 0.28 M^−1 × 10^4
TΔS ([2]; ITC at 293 K (Table 2)): 1.72 kcal/mol
ΔG ([2]; ITC at 293 K (Table 2)): -6.06 kcal/mol
ΔH ([2]; ITC at 293 K (Table 2)): -4.34 ± 0.66 kcal/mol
pKa (Acid-base titration): 4.1
Compound: COc1cc2c3cc1OCCOc1cc4c(cc1OCC(=O)O)Cc1cc5c(OCC(=O)O)cc1Cc1cc(c(OCC(=O)O)cc1C4)OCCOc1cc(c(cc1OC)C3)Cc1cc(OC)c(cc1C2)OCCO5 [TAAC, Tri-Acetic Acid Cryptophane]
deprotonations required for aqueous solubility [3]: required all three acids to be deprotonated for aqueous solubility

association constant (Xe) by fluorescence quenching [1]: 17,000±1800 M^−1
KA ([2]; Buffer 293 K): 1.73 ± 0.17 M^−1 × 10^4
TΔS ([2]; Buffer 293 K): 2.55 kcal/mol
ΔG ([2]; Buffer 293 K): -5.69 kcal/mol
ΔH ([2]; Buffer 293 K): -3.14 ± 0.20 kcal/mol
KA ([2]; Buffer 310 K): 3.01 ± 0.26 M^−1 × 10^4
TΔS ([2]; Buffer 310 K): 2.80 kcal/mol
ΔG ([2]; Buffer 310 K): -6.36 kcal/mol
ΔH ([2]; Buffer 310 K): -3.56 ± 0.13 kcal/mol
KA ([2]; ITC at 293 K (Table 2)): 1.70 M^−1 × 10^4
TΔS ([2]; ITC at 293 K (Table 2)): 2.55 kcal/mol
ΔG ([2]; ITC at 293 K (Table 2)): -5.69 kcal/mol
ΔH ([2]; ITC at 293 K (Table 2)): -3.14 kcal/mol
upper limit of ΔH for the enthalpy of xenon binding ([2]; calculated from Table 5 and known thermodynamics of xenon partitioning into water): ≤ -7.5 kcal/mol
ΔS of xenon binding ([2]; phosphate buffer, 293 and 310 K): 9.0 cal/mol K
KA [4]: 2.19 ± 0.22 M^−1 × 10^4
TΔS [4]: 0.12 kcal/mol
TΔS (contribution of entropy) [4]: 0.12
measured ΔH of xenon binding [4]: -6.04 kcal/mol
ΔG [4]: -6.16 kcal/mol
ΔH [4]: -6.04 ± 0.33 kcal/mol
Kd (human isozyme II (CAII)): 60 ± 20 nM
Compound: tri-triazole propionate cryptophane [TTPC]

Compound: COc1ccccc1OCC(=O)O [2-(2-methoxyphenoxy)acetic acid]
pKa of analogous acid (comparison) [5]: 3.23
